Reference: US20100267561A1, “HERBICIDAL PYRIDAZINONE DERIVATIVES” (priority 2007, published 2010)
Read-outs that look alike come from different tables or passages of the source.

Legend:
Assay in all cases: Test B pre-/postemergence plant response
Type in all cases: in vivo
wild oat (Avena fatua) = details: Preemergence
Description: (§1) Seeds of plant species selected from blackgrass (Alopecurus myosuroides), downy bromegrass (Bromus tectorum), green foxtail (Setaria viridis), Italian ryegrass (Lolium multiflorum), wheat (Triticum aestivum), wild oat (Avena fatua), catchweed bedstraw (Galium aparine), bermudagrass (Cynodon dactylon), surinam grass (Brachiaria decumbens), cocklebur (Xanthium strumarium), corn (Zea mays), large crabgrass (Digitaria sanguinalis), woolly cupgrass (Eriochloa villosa), giant foxtail (Setaria faberii), goosegrass (Eleusine indica), johnsongrass (Sorghum halepense), kochia (Kochia scoparia), lambsquarters (Chenopodium album), morningglory (Ipomoea coccinea), eastern black (E.B.) nightshade (Solanum ptycanthum), yellow nutsedge (Cyperus esculentus), pigweed (Amaranthus retroflexus), common ragweed (Ambrosia elation), Russian thistle (Salsola iberica), soybean (Glycine max), common (oilseed) sunflower (Helianthus annuus), and velvetleaf (Abutilon theophrasti) were planted and treated preemergence with test chemicals formulated in a non-phytotoxic solvent mixture which included a surfactant.
(§2) At the same time, plants selected from these crop and weed species and also winter barley (Hordeum vulgare), canarygrass (Phalaris minor), chickweed (Stellaria media) and windgrass (Apera spica-venti) were treated with postemergence applications of some of the test chemicals formulated in the same manner. Plants ranged in height from 2 to 18 cm (1- to 4-leaf stage) for postemergence treatments.
(§3) Plant species in the flooded paddy test consisted of rice (Oryza sativa), umbrella sedge (Cyperus difformis), ducksalad (Heteranthera limosa) and barnyardgrass (Echinochloa crus-galli) grown to the 2-leaf stage for testing. At time of treatment, test pots were flooded to 3 cm above the soil surface, treated by application of test compounds directly to the paddy water, and then maintained at that water depth for the duration of the test. Treated plants and controls were maintained in a greenhouse for 13 to 15 days, after which time all species were compared to controls and visually evaluated. Plant response ratings, summarized in Table B, are based on a scale of 0 to 100 where 0 is no effect and 100 is complete control. A dash (-) response means no test result.

[1] = tested on: giant foxtail (Setaria faberii); details: for pest or weed control at 31 g/ha: 31 g ai/ha; for pest or weed control at 62 g/ha: 62 g ai/ha, 100 complete control
Description: as §1, §2, §3

[2] = tested on: goosegrass (Eleusine indica); details: for pest or weed control at 31 g/ha / pest or weed control at 62 g/ha: Eleusine indica, read-out: Plant response rating, Goosegrass; for pest or weed control at 31 g/ha: 31 g ai/ha; for pest or weed control at 62 g/ha: 62 g ai/ha, 100 complete control
Description: as §1, §2, §3

[3] = tested on: woolly cupgrass (Eriochloa villosa); details: for pest or weed control at 31 g/ha: 31 g ai/ha; for pest or weed control at 62 g/ha: 62 g ai/ha, 100 complete control
Description: as §1, §2, §3

[4] = tested on: large crabgrass (Digitaria sanguinalis); details: for pest or weed control at 31 g/ha: 31 g ai/ha; for pest or weed control at 62 g/ha: 62 g ai/ha, 100 complete control
Description: as §1, §2, §3

[5] = tested on: green foxtail (Setaria viridis); details: for pest or weed control at 31 g/ha: 31 g ai/ha; for pest or weed control at 62 g/ha: 62 g ai/ha, 100 complete control
Description: as §1, §2, §3

[6] = 8 g ai/ha, postemergence, 0-100 scale
[7] = Preemergence, 8 g ai/ha, scale 0 to 100 (0 no effect, 100 complete control)
[8] = Preemergence, 16 g ai/ha, scale 0 to 100

Question: For `Cc1cc(-c2ccc(Br)cc2)nn1-c1c(O)cn[nH]c1=O` [Compound 78, 4-[3-(4-bromophenyl)-5-methyl-1H-pyrazol-1-yl]-5-hydroxy-3(2H)-pyridazinone], which pest or weed control at 31 g/ha (wild oat (Avena fatua); Avena fatua, pre-emergence, 31 g ai/ha, scale 0 to 100 (0 no effect, 100 complete control), read-out: Plant response rating, Oat, Wild) is on record?
Answer: 70%

Question: And the pest or weed control at 62 g/ha (wild oat (Avena fatua); Avena fatua, pre-emergence, 62 g ai/ha, 0 to 100 scale, 0 no effect, 100 complete control, read-out: Plant response rating, Oat, Wild)?
Answer: 85%

Question: What about the “Oat, Wild plant response rating” value (wild oat (Avena fatua); 8 g ai/ha, scale 0 to 100 (0 no effect, 100 complete control)) of the same molecule?
Answer: 30

Question: What about the “Oat, Wild plant response rating” value (wild oat (Avena fatua); 16 g ai/ha, scale 0 to 100) of the same molecule?
Answer: 40

Question: And the “Foxtail, Giant plant response rating” value [1, 6]?
Answer: 98

Question: And the “Foxtail, Giant plant response rating” value [1, 7]?
Answer: 98

Question: What about the “Foxtail, Giant plant response rating” value [1, 8] of the same molecule?
Answer: 100

Question: What about the pest or weed control at 16 g/ha ([1]; Setaria faberi, post-emergence, Postemergence, 16 g ai/ha, scale 0 to 100, read-out: Plant response rating, Foxtail, Giant) of the same molecule?
Answer: 100%

Question: And the pest or weed control at 31 g/ha ([1]; Setaria faberi, post-emergence, Postemergence, scale 0 to 100, read-out: Plant response rating, Foxtail, Giant)?
Answer: 100%

Question: What about the pest or weed control at 62 g/ha ([1]; Setaria faberi, post-emergence, Postemergence, scale 0 to 100, 0 no effect, read-out: Plant response rating, Foxtail, Giant) of the same molecule?
Answer: 100%

Question: And the pest or weed control at 31 g/ha ([1]; Setaria faberi, pre-emergence, Preemergence, scale 0 to 100 (0 no effect, 100 complete control), read-out: Plant response rating, Foxtail, Giant)?
Answer: 100%

Question: And the pest or weed control at 62 g/ha ([1]; Setaria faberi, pre-emergence, Preemergence, 0 to 100 scale, 0 no effect, read-out: Plant response rating, Foxtail, Giant)?
Answer: 100%

Question: What about the “Goosegrass plant response rating” value [2, 6] of the same molecule?
Answer: 70

Question: What about the “Goosegrass plant response rating” value ([2]; 16 g ai/ha, postemergence, 0-100 scale) of the same molecule?
Answer: 85

Question: And the pest or weed control at 31 g/ha ([2]; post-emergence, Postemergence, scale 0 to 100)?
Answer: 90%

Question: What about the pest or weed control at 62 g/ha ([2]; post-emergence, Postemergence, scale 0 to 100, 0 no effect) of the same molecule?
Answer: 100%

Question: What about the pest or weed control at 31 g/ha ([2]; pre-emergence, Preemergence, scale 0 to 100 (0 no effect, 100 complete control)) of the same molecule?
Answer: 100%

Question: What about the pest or weed control at 62 g/ha ([2]; pre-emergence, Preemergence, 0 to 100 scale, 0 no effect) of the same molecule?
Answer: 100%

Question: And the “Goosegrass plant response rating” value [2, 7]?
Answer: 85

Question: And the “Goosegrass plant response rating” value [2, 8]?
Answer: 100

Question: And the “Cupgrass, Woolly plant response rating” value [3, 6]?
Answer: 98

Question: And the pest or weed control at 16 g/ha ([3]; Eriochloa villosa, post-emergence, Postemergence, 16 g ai/ha, scale 0 to 100, read-out: Plant response rating, Cupgrass, Woolly)?
Answer: 100%

Question: And the pest or weed control at 31 g/ha ([3]; Eriochloa villosa, post-emergence, Postemergence, scale 0 to 100, read-out: Plant response rating, Cupgrass, Woolly)?
Answer: 100%

Question: And the pest or weed control at 62 g/ha ([3]; Eriochloa villosa, post-emergence, Postemergence, scale 0 to 100, 0 no effect, read-out: Plant response rating, Cupgrass, Woolly)?
Answer: 100%

Question: And the pest or weed control at 31 g/ha ([3]; Eriochloa villosa, pre-emergence, Preemergence, scale 0 to 100 (0 no effect, 100 complete control), read-out: Plant response rating, Cupgrass, Woolly)?
Answer: 100%

Question: What about the pest or weed control at 62 g/ha ([3]; Eriochloa villosa, pre-emergence, Preemergence, 0 to 100 scale, 0 no effect, read-out: Plant response rating, Cupgrass, Woolly) of the same molecule?
Answer: 100%

Question: What about the “Cupgrass, Woolly plant response rating” value [3, 7] of the same molecule?
Answer: 65

Question: And the “Cupgrass, Woolly plant response rating” value [3, 8]?
Answer: 98

Question: And the “Crabgrass, Large plant response rating” value [4, 6]?
Answer: 98

Question: What about the pest or weed control at 16 g/ha ([4]; Digitaria sanguinalis, post-emergence, Postemergence, 16 g ai/ha, scale 0 to 100, read-out: Plant response rating, Crabgrass, Large) of the same molecule?
Answer: 100%

Question: What about the pest or weed control at 31 g/ha ([4]; Digitaria sanguinalis, post-emergence, Postemergence, scale 0 to 100, read-out: Plant response rating, Crabgrass, Large) of the same molecule?
Answer: 100%

Question: What about the pest or weed control at 62 g/ha ([4]; Digitaria sanguinalis, post-emergence, Postemergence, scale 0 to 100, 0 no effect, read-out: Plant response rating, Crabgrass, Large) of the same molecule?
Answer: 100%

Question: What about the pest or weed control at 31 g/ha ([4]; Digitaria sanguinalis, pre-emergence, Preemergence, scale 0 to 100 (0 no effect, 100 complete control), read-out: Plant response rating, Crabgrass, Large) of the same molecule?
Answer: 100%

Question: What about the pest or weed control at 62 g/ha ([4]; Digitaria sanguinalis, pre-emergence, Preemergence, 0 to 100 scale, 0 no effect, read-out: Plant response rating, Crabgrass, Large) of the same molecule?
Answer: 100%

Question: What about the “Crabgrass, Large plant response rating” value [4, 7] of the same molecule?
Answer: 15

Question: And the “Crabgrass, Large plant response rating” value [4, 8]?
Answer: 95

Question: And the “Foxtail, Green plant response rating” value [5, 6]?
Answer: 40

Question: And the “Foxtail, Green plant response rating” value [5, 7]?
Answer: 100

Question: What about the “Foxtail, Green plant response rating” value [5, 8] of the same molecule?
Answer: 100

Question: What about the pest or weed control at 16 g/ha ([5]; Setaria viridis, post-emergence, Postemergence, 16 g ai/ha, scale 0 to 100, read-out: Plant response rating, Foxtail, Green) of the same molecule?
Answer: 60%

Question: And the pest or weed control at 31 g/ha ([5]; Setaria viridis, post-emergence, Postemergence, scale 0 to 100, read-out: Plant response rating, Foxtail, Green)?
Answer: 80%

Question: And the pest or weed control at 62 g/ha ([5]; Setaria viridis, post-emergence, Postemergence, scale 0 to 100, 0 no effect, read-out: Plant response rating, Foxtail, Green)?
Answer: 100%

Question: What about the pest or weed control at 31 g/ha ([5]; Setaria viridis, pre-emergence, Preemergence, scale 0 to 100 (0 no effect, 100 complete control), read-out: Plant response rating, Foxtail, Green) of the same molecule?
Answer: 100%

Question: And the pest or weed control at 62 g/ha ([5]; Setaria viridis, pre-emergence, Preemergence, 0 to 100 scale, 0 no effect, read-out: Plant response rating, Foxtail, Green)?
Answer: 100%
